Reference: US20160100574A1, “Antimicrobial Compositions Comprising Glyceryl Ethers” (SYMRISE AG, priority 2013, published 2016)

Experiments:
Format in all cases: cell-based
P. aeruginosa = assay: Challenge test of preserved emulsion, P. aeruginosa
Experimental: (§1) 1% b.w. of heptylglycerin, benzylglycerin and phenylpropylglycerin, respectively was added to an aqueous emulsion of Glyceryl stearyl citrate (Dracorin CE). The formulations were tested in standard challenge tests against various micro-organisms. The results are shown in Table 1 and indicate the high activity of the actives against yeast and bacteria, but not against mould.

C. albicans = assay: Challenge test of preserved emulsion, C. albicans
Experimental: as §1

Aspergillus brasiliensis = assay: Minimum inhibitory concentration according to DIN 58940, Aspergillus brasiliensis; settings: Aspergillus brasiliensis, single antimicrobial agents
Text: (§2) In order to calculate the Synergy Index SI with MIC values, the Kull equation is used as follows:
(§3) SI=(MICmixture×PA)/MICA+(MICmixture×PB)/MICB (II)
(§4) where SI is the Synergy Index according to Kull^1), 2) MICA is the MIC value for substance A MICB is the MIC value for substance B MICmixture is the MIC value for the mixture of substances A and B PA is the proportion of the substance A in the mixture PB is the proportion of the substance B in the mixture. b) Mixtures containing 3 components
(§5) SI=(MICmixture×PA)/MICA+(MICmixture×PB)/MICB+(MICmixture×PC)/MICC
(§6) where SI is the Synergy Index according to Kull^1), 2) MICA is the MIC value for substance A MICB is the MIC value for substance B MICC is the MIC value for substance C MICmixture is the MIC value for the mixture of substances […] PA is the proportion of the substance A in the mixture PB is the proportion of the substance B in the mixture. PC is the proportion of the substance C in the mixture.

A. brasiliensis = assay: Challenge test / synergy (Kull equation), A. brasiliensis
Experimental: 1% b.w. of heptylglycerin, benzylglycerin and phenylpropylglycerin, respectively was added to an aqueous emulsion of Glyceryl stearyl citrate (Dracorin CE). The formulations were tested in standard challenge tests against various micro-organisms.
To calculate the synergism between compounds of formula (I) and other antimicrobial actives, the Kull equation^1 2 was used
SI=(Cmixture×PA)/CA+(Cmixture×PB)/CB (I)
where SI is the Synergy Index according to Kull^1), 2) CA is the cell count for substance A CB is the cell count for substance B Cmixture is the cell count for the mixture of substances A and B PA is the proportion of the substance A in the mixture PB is the proportion of the substance B in the mixture. ^1 Kull, F. C., Eismann, P. C., Sylvestrowicz, H. D., and R. L. Mayer (1961). Mixtures of Quaternary Ammonium Compounds and Long-chain Fatty Acids as Antifungal Agents. Applied Microbiology 9, 538-541.^2 Steinberg, D.C. (2000). Measuring Synergy. Cosmetics & Toiletries 115 (11), 59-62.
Colony counts of <100 were arbitrarily set to 100, in order to allow for synergy calculations with the above equation. The abbreviation “n.a.” means not applicable.

Candida albicans = assay: Minimum inhibitory concentration according to DIN 58940, Candida albicans; settings: Candida albicans, single antimicrobial agents
Text: as §2, §3, §4, §5, §6

E. coli = assay: Challenge test of preserved emulsion, E. coli
Experimental: as §1

S. aureus = assay: Challenge test of preserved emulsion, S. aureus
Experimental: as §1

Staphylococcus aureus = assay: Minimum inhibitory concentration according to DIN 58940, Staphylococcus aureus; settings: Staphylococcus aureus, single antimicrobial agents
Text: as §2, §3, §4, §5, §6

Escherichia coli = assay: Minimum inhibitory concentration according to DIN 58940, Escherichia coli; settings: Escherichia coli, single antimicrobial agents, read-out: MIC values E. coli
Text: as §2, §3, §4, §5, §6

Pseudomonas aeruginosa = assay: Minimum inhibitory concentration according to DIN 58940, Pseudomonas aeruginosa; settings: Pseudomonas aeruginosa, single antimicrobial agents
Text: as §2, §3, §4, §5, §6

[1] = Day 0, 1% b.w. active in aqueous emulsion of Glyceryl stearyl citrate (Dracorin CE)
[2] = Day 2, 1% b.w. active in aqueous emulsion of Glyceryl stearyl citrate (Dracorin CE)
[3] = Day 7, 1% b.w. active in aqueous emulsion of Glyceryl stearyl citrate (Dracorin CE)
[4] = Day 14, 1% b.w. active in aqueous emulsion of Glyceryl stearyl citrate (Dracorin CE)
[5] = Day 28, 1% b.w. active in aqueous emulsion of Glyceryl stearyl citrate (Dracorin CE)

Compound: OCC(O)COCc1ccccc1 (centres unmarked) [Benzylglycerin]
- colony counts Day 0 (P. aeruginosa; [1]): 210.000 cfu/g formulation
- colony counts Day 2 (P. aeruginosa; [2]): 0 cfu/g formulation
- colony counts Day 7 (P. aeruginosa; [3]): 0 cfu/g formulation
- colony counts Day 14 (P. aeruginosa; [4]): 0 cfu/g formulation
- colony counts Day 28 (P. aeruginosa; [5]): 0 cfu/g formulation
- colony counts Day 14 (C. albicans; [4]): 0 cfu/g formulation
- colony counts Day 28 (C. albicans; [5]): 0 cfu/g formulation
- MIC (Aspergillus brasiliensis): 20 mg/mL
- colony counts Day 0 (A. brasiliensis; [1]): 360.000 cfu/g formulation
- colony counts Day 2 (A. brasiliensis; [2]): 490.000 cfu/g formulation
- colony counts Day 14 (A. brasiliensis; [4]): 300.000 cfu/g formulation
- colony counts Day 28 (A. brasiliensis; [5]): 30.000 cfu/g formulation
- MIC (Candida albicans): 20 mg/mL
- colony counts Day 0 (E. coli; [1]): 250.000 cfu/g formulation
- colony counts Day 2 (E. coli; [2]): 0 cfu/g formulation
- colony counts Day 7 (E. coli; [3]): 0 cfu/g formulation
- colony counts Day 14 (E. coli; [4]): 0 cfu/g formulation
- colony counts Day 28 (E. coli; [5]): 0 cfu/g formulation
- colony counts Day 0 (S. aureus; [1]): 240.000 cfu/g formulation
- colony counts Day 2 (S. aureus; [2]): 700 cfu/g formulation
- colony counts Day 7 (S. aureus; [3]): <100 cfu/g formulation
- colony counts Day 14 (S. aureus; [4]): 0 cfu/g formulation
- colony counts Day 28 (S. aureus; [5]): 0 cfu/g formulation
- MIC (Staphylococcus aureus): 20 mg/mL
- MIC (Escherichia coli): 10 mg/mL
- MIC (Pseudomonas aeruginosa): 20 mg/mL
